In publication PMC3155477, “Cinnamon extract inhibits α-glucosidase activity and dampens postprandial glucose excursion in diabetic rats” (Nutrition & Metabolism, 2011):
Values after ≈ are worked out from the molar mass of the structure shown.

How the values were obtained:
[1] = biological target: T1, rat-intestinal α-glucosidase (mammalian α-glucosidase); experiment: p-nitrophenol release from PNPG; format: biochemical; conditions: PNPG substrate (20 μl of 1 mM added), 50 mM phosphate pH 6.8, 37°C, 5 min pre-incubation, 30 min
T1 construct: gene Mgam; crude supernatant of sonicated rat-intestinal acetone powder (Sigma); native enzymes, not purified

[2] = system: T1, rat-intestinal α-glucosidase (mammalian α-glucosidase); experiment: Lineweaver-Burk plot, p-nitrophenol release; format: biochemical; conditions: no cinnamon extract; 0.5-4 mM PNPG, 37°C, 30 min
Text: Lineweaver-Burk plot, p-nitrophenol release on rat-intestinal α-glucosidase (mammalian α-glucosidase)

IC50 [1] | Km [2] | Compound
34.11 µg/mL (≈ 52.8 µM) | – | C[C@H]1O[C@H](O[C@H]2[C@H](O)[C@@H](O)[C@@H](O[C@H]3[C@H](O)[C@@H](O)C(O)O[C@@H]3CO)O[C@@H]2CO)[C@H](O)[C@@H](O)[C@@H]1N[C@H]1C=C(CO)[C@@H](O)[C@H](O)[C@H]1O (some centres unmarked) [Acarbose]
– | 850 µM | O=[N+]([O-])c1ccc(O[C@H]2O[C@H](CO)[C@@H](O)[C@H](O)[C@H]2O)cc1 [p-Nitrophenyl-α-D-glucopyranoside]
